Assay results: BindingDB's records for PubMed 35814933 (Nankai University, 2022)

Assays:
[1] = biological target: Cyclin-dependent kinase 5 (Homo sapiens, UniProt Q00535); test: Inhibition of CDK5 (unknown origin)
[2] = biological target: Cyclin-dependent kinase 7 (Homo sapiens, UniProt P50613); test: Inhibition of CDK7 (unknown origin)
Cyclin-dependent kinase 7, sequence (P50613 whole entry): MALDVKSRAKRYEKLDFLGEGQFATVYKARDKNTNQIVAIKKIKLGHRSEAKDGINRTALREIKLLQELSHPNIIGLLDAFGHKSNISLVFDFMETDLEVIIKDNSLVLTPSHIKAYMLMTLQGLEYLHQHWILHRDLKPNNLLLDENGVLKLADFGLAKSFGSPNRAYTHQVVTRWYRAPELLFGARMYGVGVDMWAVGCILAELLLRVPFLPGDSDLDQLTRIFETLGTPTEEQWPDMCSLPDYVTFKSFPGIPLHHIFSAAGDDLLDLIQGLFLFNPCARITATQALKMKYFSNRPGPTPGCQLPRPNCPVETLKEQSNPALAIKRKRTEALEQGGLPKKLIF

Cyclin-dependent kinase 5, sequence (Q00535 whole entry): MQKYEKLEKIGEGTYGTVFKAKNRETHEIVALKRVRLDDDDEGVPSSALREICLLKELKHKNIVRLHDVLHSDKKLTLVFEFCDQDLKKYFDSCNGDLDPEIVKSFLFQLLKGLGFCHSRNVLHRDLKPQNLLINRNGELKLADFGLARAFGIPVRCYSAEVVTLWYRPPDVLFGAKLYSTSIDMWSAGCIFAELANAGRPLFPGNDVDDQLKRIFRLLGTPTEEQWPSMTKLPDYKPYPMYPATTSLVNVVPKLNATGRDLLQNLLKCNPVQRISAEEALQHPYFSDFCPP

Compound `CC[C@H](Nc1nc(NCc2cnc(C)cc2C)c2ncn(C(C)C)c2n1)[C@@H](C)O` [US8592581, 1] has an IC50 [1] of 21 nM and an IC50 [2] of 193 nM.
